Laboratory results taken from US12139487B2, “Compounds and uses thereof” (Foghorn Therapeutics Inc., priority 2022, dated 2024).

Tested on: BRM-dependent transcription (BRG1 mutant lung cancer cell line A549)
Experiment: BRM-dependent transcription, MMTV luciferase reporter in BRG1 mutant A549 cells
Type: cell-based
Conditions: Table 11; for IC50: A549-MMTV luciferase reporter, dexamethasone induced, 6 hours; for Ratio (MDA-MMTV IC50 (μM) divided by A549-MMTV IC50 (μM)): MMTV luciferase reporter cell lines, selectivity BRG1/BRM
Method: The potential inhibitory effects of compounds on BRG1 and BRM dependent transcription was study by testing the activity of against the BRG1 mutant lung cancer cell line A549 and a MDA cell line with BRM removed by CRISPR. Both cell lines were genetically engineered with a BRG1 or BRM-dependent mouse mammary tumor virus luciferase reporter. Luciferase transcription was induced by dexamethasone in the presence of compound at different concentrations and luminescence was measured using a plate reader 6 hours after stimulation.

SMILES | IC50 | Ratio (MDA-MMTV IC50 (μM) divided by A549-MMTV IC50 (μM)) | IC50 (Homo sapiens, A549, 6 h)
C[C@@H]1CCN1c1cnc2c(-c3ccc4cnc(CNC(=O)c5cc(F)c6c(c5)S(=O)(=O)[C@@H](F)COC6)cc4n3)cccc2c1 [Compound 470] | 4.1 nM | 29.42 | –
CCOc1nc(C(C)(F)F)ccc1-c1ccc2cnc(CNC(=O)c3cc(F)c4c(c3)S(=O)(=O)[C@@H](F)COC4)cc2n1 [Compound 509] | 20.2 nM | 25.33 | –
O=C(NCc1cc2nc(-c3ccc([C@H](F)CF)nc3OC(F)F)ccc2cn1)c1cc(F)c2c(c1)S(=O)(=O)[C@@H](F)CCO2 [Compound 392] | – | 24.22 | 4.7 nM
[2H]C([2H])([2H])Oc1ccc(-c2ccc3cnc(CNC(=O)c4cc(Cl)c5c(c4)S(=O)(=O)[C@@H](F)COC5)cc3n2)nc1C1CC1 [Compound 523] | – | 26.20 | 16.2 nM
CCOc1nc([C@H](F)CF)ccc1-c1ccc2cnc(CNC(=O)c3cc(C(F)F)c4c(c3)S(=O)(=O)[C@@H](F)COC4)cc2n1 [Compound 518] | 21 nM | 35.47 | –
O=C(NCc1cc2nc(-c3ccc([C@H](F)CF)c(C4CC4)n3)ccc2cn1)c1cc(F)c2c(c1)S(=O)(=O)[C@@H](F)CCO2 [Compound 411] | – | 24.27 | 8.6 nM
O=C(NCc1cc2nc(-c3ccc(C(F)F)c(C4CC4)n3)ccc2cn1)c1cc(Br)c2c(c1)S(=O)(=O)[C@@H](F)COC2 [Compound 442] | – | 25.83 | 8.5 nM
O=C(NCc1cc2nc(-c3ccc([C@@H](F)C(F)F)c(C4CC4)n3)ccc2cn1)c1cc(Br)c2c(c1)S(=O)(=O)[C@@H](F)COC2 [Compound 483] | – | 28.21 | 11.1 nM
CN(C)c1nccc(-c2ccc3cnc(CNC(=O)c4cc(F)c5c(c4)S(=O)(=O)[C@@H](F)CCO5)cc3n2)n1 [Compound 349] | – | 34.91 | 13 nM
C=Cc1cc(C(=O)NCc2cc3nc(-c4cccc(N5C[C@@H](C)O[C@@H](C)C5)n4)ccc3cn2)cc2c1OCC[C@H](F)S2(=O)=O [Compound 407] | – | 29.00 | 11.7 nM
O=C(NCc1cc2nc(-c3ccc([C@@H](F)C(F)F)c(C4CC4)n3)ccc2cn1)c1cc(C(F)F)c2c(c1)S(=O)(=O)[C@@H](F)COC2 [Compound 476] | – | 21.45 | 22.4 nM
C[C@@H]1CCN1c1cnc2c(-c3ccc4cnc(CNC(=O)c5cc(F)c6c(c5)S(=O)(=O)[C@@H](F)COC6)cc4n3)cccc2c1 [Compound 496] | 1.6 nM | 21.18 | –
C#Cc1cc(C(=O)NCc2cc3nc(-c4cccc(N5C[C@@H](C)O[C@@H](C)C5)n4)ccc3cn2)cc2c1COC[C@H](F)S2(=O)=O [Compound 393] | – | 36.31 | 20.3 nM
CCOc1nc([C@H](F)CF)ccc1-c1ccc2cnc(CNC(=O)c3cc(Br)c4c(c3)S(=O)(=O)[C@@H](F)COC4)cc2n1 [Compound 461] | – | 56.88 | 25.9 nM
O=C(NCc1cc2nc(-c3cccc(OC(F)F)n3)ccc2cn1)c1cc(C(F)F)c2c(c1)S(=O)(=O)[C@@H](F)COC2 [Compound 404] | – | 36.02 | 15.6 nM
CC(C)c1ccc(-c2ccc3cnc(CNC(=O)c4cc(Br)c5c(c4)S(=O)(=O)[C@@H](F)CCO5)cc3n2)c(OC(F)F)n1 [Compound 402] | – | 26.98 | 21.7 nM
COc1nc([C@@H](F)CF)ccc1-c1ccc2cnc(CNC(=O)c3cc(Cl)c4c(c3)S(=O)(=O)[C@@H](F)CCO4)cc2n1 [Compound 382] | – | 40.88 | 9.6 nM
O=C(NCc1cc2nc(-c3ccc(C(F)F)c(N4CC(F)C4)n3)ccc2cn1)c1cc(F)c2c(c1)S(=O)(=O)[C@@H](F)CCO2 [Compound 441] | – | 21.14 | 8.9 nM
COc1ccc(-c2ccc3cnc(CNC(=O)c4cc(Cl)c5c(c4)S(=O)(=O)[C@@H](F)CCO5)cc3n2)nc1C1CC1(F)F (stereo partly drawn) [Compound 369] | – | 26.85 | 17.1 nM
COCCOc1nn(-c2ccc3cnc(CNC(=O)c4cc(Cl)c5c(c4)S(=O)(=O)[C@@H](F)COC5)cc3n2)cc1F [Compound 512] | – | 23.26 | 10 nM
O=C(NCc1cc2nc(-c3cccc(C4CC4(F)F)n3)ccc2cn1)c1cc(F)c2c(c1)S(=O)(=O)[C@@H](F)CCO2 (stereo partly drawn) [Compound 336] | – | 22.47 | 15.3 nM

More lines, now with the values ahead:

IC50 | Ratio (MDA-MMTV IC50 (μM) divided by A549-MMTV IC50 (μM)) | IC50 (Homo sapiens, A549, 6 h) | SMILES
– | 36.69 | 6.5 nM | CCOc1nc([C@H](C)F)ccc1-c1ccc2cnc(CNC(=O)c3cc(F)c4c(c3)S(=O)(=O)[C@@H](F)CCO4)cc2n1 [Compound 375]
– | 21.10 | 11.9 nM | COCCOc1cnc2c(c1)CCCN2c1ccc2cnc(CNC(=O)c3cc(Cl)c4c(c3)S(=O)(=O)[C@@H](F)COC4)cc2n1 [Compound 412]
– | 22.09 | 15.3 nM | CCOc1nc([C@@H](C)F)ccc1-c1ccc2cnc(CNC(=O)c3cc(F)c4c(c3)S(=O)(=O)[C@@H](F)CCO4)cc2n1 [Compound 376]
– | 33.18 | 16.9 nM | CCOc1nc(C(F)F)ccc1-c1ccc2cnc(CNC(=O)c3cc(Cl)c4c(c3)S(=O)(=O)[C@@H](F)CCO4)cc2n1 [Compound 331, (R)-9-chloro-N-((2-(6-(difluoromethyl)-2-ethoxypyridin-3-yl)-1,6-naphthyridin-7-yl)methyl)-4-fluoro-3,4-dihydro-2H-benzo[b][1,4]oxathiepine-7-carboxamide 5,5-dioxide]
– | 48.16 | 24.6 nM | CN1Cc2c(Cl)cc(C(=O)NCc3cc4nc(-c5cccc(OC(F)F)n5)ccc4cn3)cc2S(=O)(=O)[C@H](F)C1 [Compound 466]
– | 32.84 | 20.6 nM | COCCOc1cnc2c(c1)CCCN2c1ccc2cnc(CNC(=O)c3cc(Br)c4c(c3)S(=O)(=O)[C@@H](F)COC4)cc2n1 [Compound 427]
– | 38.00 | 9.6 nM | [2H]C([2H])([2H])[C@@]([2H])(F)c1ccc(-c2ccc3cnc(CNC(=O)c4cc(Br)c5c(c4)S(=O)(=O)[C@@H](F)COC5)cc3n2)c(OC)n1 [Compound 502]
– | 25.36 | 14.1 nM | COc1nc(OC(F)F)ccc1-c1ccc2cnc(CNC(=O)c3cc(Cl)c4c(c3)S(=O)(=O)[C@@H](F)COC4)cc2n1 [Compound 409]
– | 32.01 | 21 nM | O=C(NCc1cc2nc(-n3cc(F)c(OC(F)F)n3)ccc2cn1)c1cc(C(F)F)c2c(c1)S(=O)(=O)[C@@H](F)COC2 [Compound 514, (2R)—N-[[2-[3-(difluoromethoxy)-4-fluoro-pyrazol-1-yl]-1,6-naphthyridin-7-yl]methyl]-6-(difluoromethyl)-2-fluoro-1,1-dioxo-3,5-dihydro-2H-4,1benzoxathiepine-8-carboxamide]
